Molecular target: T1, human macrophage galactose-type lectin (hMGL) (Homo sapiens, UniProt Q8IUN9)
T1 sequence (Q8IUN9 1-316): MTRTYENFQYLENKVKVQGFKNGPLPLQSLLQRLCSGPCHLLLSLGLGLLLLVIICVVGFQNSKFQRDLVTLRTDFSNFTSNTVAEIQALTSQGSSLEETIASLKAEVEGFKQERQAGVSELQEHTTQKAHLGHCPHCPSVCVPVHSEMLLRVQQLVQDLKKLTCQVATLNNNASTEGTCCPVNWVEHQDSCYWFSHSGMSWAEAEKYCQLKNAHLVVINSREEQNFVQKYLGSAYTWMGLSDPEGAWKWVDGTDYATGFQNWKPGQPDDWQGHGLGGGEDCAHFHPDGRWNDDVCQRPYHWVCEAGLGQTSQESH
Experiment: ITC analysis of binding of GalNAc and MUC1

[1] = 10 mM HEPES sodium salt, 50 mM NaCl, 2 mM CaCl2, pH 7.4, 298 K, one-site model

Structure (SMILES): CC(=O)N[C@H]1C(O)O[C@H](CO)[C@H](O)[C@@H]1O (mixture of isomers) [GalNAc, N-acetylgalactosamine]
- KA [1]: 68000 M⁻¹
- ΔG [1]: -6.59 kcal/mol
- −TΔS [1]: 4.97 kcal/mol
- n (stoichiometry) (complete saturation of hMGL, functional valency = 1/n, pH 7.4, 298 K): 0.99
